According to the supplement of paper PMC13380429:

Tests used:
Details in all cases: 72 h
Calu-3 [1] = assay: drug sensitivity score (DSS) for viability; higher = more toxic; extreme values may be limits of the assay
Vero E6 [2] = assay: as above
U2OS [3] = assay: as above
HepG2 [4] = assay: as above
Caco-2 [5] = assay: as above
Calu-3 [6] = assay: cell viability relative to DMSO; higher = less toxic
Vero E6 [7] = assay: as above
U2OS [8] = assay: as above
HepG2 [9] = assay: as above
Caco-2 [10] = assay: as above
Calu-3 [11] = assay: relative viability EC50 (midpoint between 100% and the lowest measured viability); higher = less toxic
Vero E6 [12] = assay: as above
U2OS [13] = assay: as above
HepG2 [14] = assay: as above
Caco-2 [15] = assay: as above

SMILES	drug sensitivity score (Calu-3 [1])	drug sensitivity score (Vero E6 [2])	drug sensitivity score (U2OS [3])	drug sensitivity score (HepG2 [4])	drug sensitivity score (Caco-2 [5])	cell viability (Calu-3 [6]; 1 nM) [%]	cell viability (Calu-3 [6]; 10 nM) [%]	cell viability (Calu-3 [6]; 100 nM) [%]	cell viability (Calu-3 [6]; 1000 nM) [%]	cell viability (Calu-3 [6]; 10000 nM) [%]	cell viability (Vero E6 [7]; 1 nM) [%]	cell viability (Vero E6 [7]; 10 nM) [%]	cell viability (Vero E6 [7]; 100 nM) [%]	cell viability (Vero E6 [7]; 1000 nM) [%]	cell viability (Vero E6 [7]; 10000 nM) [%]	cell viability (U2OS [8]; 1 nM) [%]	cell viability (U2OS [8]; 10 nM) [%]	cell viability (U2OS [8]; 100 nM) [%]	cell viability (U2OS [8]; 1000 nM) [%]	cell viability (U2OS [8]; 10000 nM) [%]	cell viability (HepG2 [9]; 1 nM) [%]	cell viability (HepG2 [9]; 10 nM) [%]	cell viability (HepG2 [9]; 100 nM) [%]	cell viability (HepG2 [9]; 1000 nM) [%]	cell viability (HepG2 [9]; 10000 nM) [%]	cell viability (Caco-2 [10]; 1 nM) [%]	cell viability (Caco-2 [10]; 10 nM) [%]	cell viability (Caco-2 [10]; 100 nM) [%]	cell viability (Caco-2 [10]; 1000 nM) [%]	cell viability (Caco-2 [10]; 10000 nM) [%]	relative viability EC50 (Calu-3 [11]) [µM]	relative viability EC50 (Vero E6 [12]) [µM]	relative viability EC50 (U2OS [13]) [µM]	relative viability EC50 (HepG2 [14]) [µM]	relative viability EC50 (Caco-2 [15]) [µM]
C#C[C@]1(O)C=C[C@H]2[C@@H]3CCC4=CC(=O)CC[C@@H]4[C@H]3CC[C@@]21CC [gestodene]	0	0	0	0	0	95.9	101	101	88.5	108	95.9	96.8	96.3	94.3	106	96.3	99.2	94.3	96	102	103	102	111	105	99.7	90.1	89.6	98.9	100	98.7	> 10	> 10	> 10	> 10	> 10
CC(C)=CCC[C@](C)(O[C@@H]1O[C@H](CO)[C@@H](O)[C@H](O)[C@H]1O)[C@H]1CC[C@]2(C)[C@@H]1[C@H](O)C[C@@H]1[C@@]3(C)CC[C@H](O[C@@H]4O[C@H](CO)[C@@H](O)[C@H](O)[C@H]4O[C@@H]4O[C@H](CO)[C@@H](O)[C@H](O)[C@H]4O)C(C)(C)[C@@H]3CC[C@]12C [ginsenoside-RD]	0	0	0	0.3	0	105	103	101	107	99.8	99.6	101	97.2	100	99.3	102	98.9	101	100	102	94.2	97.3	101	88.9	89.6	105	98.7	94.4	92.3	104	> 10	> 10	> 10	> 10	> 10
CN1CC[C@@H](NC(=O)Nc2ccc(C#N)cc2)C[C@@H]1c1nc2ccccc2[nH]1 [glasdegib]	0	0	0	0	0.6	92.6	110	96.9	111	104	102	103	102	100	97.1	96.3	102	94.9	98.5	98.3	108	99	99.1	96.2	92	98.4	96.5	94.1	97.1	83.5	> 10	> 10	> 10	> 10	> 10
COc1ccc2c(c1)c(C1=C(c3c[nH]c4ccccc34)C(=O)NC1=O)cn2CCCN(C)C [go-6983]	1.2	0.7	1.6	3.4	0.2	98.9	85.1	99	83.9	84	108	104	97.7	103	75.3	94.4	92.2	104	91.4	79.6	105	94.7	87.1	105	31.7	110	95.6	108	101	85.7	> 10	> 10	> 10	3.52	> 10
CCc1nc2c(C)nc(C)cc2n1-c1ccc(CCNC(=O)NS(=O)(=O)c2ccc(C)cc2)cc1 [grapiprant]	0	0	0	0	0	102	89.9	103	96.1	104	101	97.7	97.3	95.6	96.6	98	96.3	97.7	99.3	96.8	103	101	104	99.2	97.6	101	90.4	101	102	93.8	> 10	> 10	> 10	> 10	> 10
CN(C)CCc1ccc(O)cc1 [hordenine]	0	0	0	0	0	91.9	93.6	89.7	101	101	106	103	101	99.1	103	94.6	96.1	92.7	102	97.8	104	110	103	87.1	100	96.2	102	100	102	95.8	> 10	> 10	> 10	> 10	> 10
